Laboratory results reported in patent US5858371A, “Pharmaceutical composition for the control and treatment of anorectal and colonic diseases” (Panacea Biotech Limited, priority 1997, dated 1999).

How the values were obtained:
[1] = test system: mast cell histamine secretion; settings: cited from earlier work
[2] = test system: croton-oil induced ear oedema; experiment: Croton oil ear test (topical; oedema); type: in vivo, mice; settings: for Activity Ratio on Molar basis: Indomethacin = 1; for Effect on Oedema Development: apigenin glycoside 0.037, luteolin glycoside 0.27, indomethacin 1.26, hydrocortisone 0.41 μMol, means ± s.e.
Description: The test used was described in published literature, where apigenin 7-glucoside was used as a reference sample.
Indomethacin and hydrocortisone were used as the reference drugs.

cotton pellet granuloma = settings: in vivo; cited from earlier work
neutrophil functions = settings: cited from earlier work
[3] = test system: Carrageenan-induced Pedal Oedema; experiment: Carrageenan-induced pedal oedema in rats, oral extract / i.p. indomethacin; type: in vivo; settings: for Oedema + SEM (%): N=6
Description: Carrageenan-induced oedema is a biphasic event, the early hypermia being due to the release of histamine and serotonin and the delayed oedema due to the release of bradykinin and prostaglandins.
Modification of Carrageenan-induced Pedal Oedema in Rats following oral
Administration of the extract and Intraperitoneal treatment with […]

[4] = test system: Carrageenan-induced Mice Paw Oedema; experiment: Carrageenan-induced paw oedema, topical application; type: in vivo
Description: Carrageenan-induced Pedal Oedema Test:
Modification of Carrageenan-induced Mice Paw Oedema following Topical
Application of the Standardized Extract and Indomethacin.
The duration of action of topical preparation was determined by studying the effects of different concentrations of the drug on oedema over a period of 8 hr. As evident from the Table 3, the peak inhibition was observed after 3-4 hours of carrageenan injection beginning at 2 hr for the extract at lower concentrations (0.5-2.0%) and 1 hr. at 4% concentration.

[5] = test system: granulocyte infiltration (MPO activity); experiment: Granulocyte/leucocyte infiltration (MPO activity), croton oil ear; type: in vivo, mice; settings: for Effect on granulocyte infiltration (MPO activity): apigenin glycoside 0.37, luteolin glycoside 0.27, indomethacin 1.26, hydrocortisone 0.41 μMol, one unit = 1 nMol/min. of tetraguaiacol at 25° C.; for leukocyte infiltration: measured as myeloperoxidase activity
Description: Effect on granulocyte infiltration (MPO activity).
One unit = 1 nMol/min. of tetraguaiacol formed at 25° C. p < 0.05
The inflammation appears to naturally suppress after 30 hours.

O=c1c(O)c(-c2ccc(O)c(O)c2)oc2cc(O)cc(O)c12 [Quercetin, quercetin]
mast cell histamine secretion [1]: inhibits mast cell histamine secretion | Activity Ratio on Molar basis [2]: 0.65 | exudative and proliferative phases of cotton pellet granuloma (cotton pellet granuloma): control significantly the exudative and the proliferative phases of the cotton pellet granuloma | neutrophil functions: release of lysosomal enzymes, oxygen consumption, generation of free radicals and chemotaxis (neutrophil functions): inhibits mast cell histamine secretion (Benett, J. P., Gomperts, B. D. and Wollenweber, E., Arzneim. Forsch., 31, 433, 1981), neutrophil functions such as release of lysosomal enzymes, oxygen consumption, generation of free radicals and chemotaxis

O=c1cc(-c2ccc(O)cc2)oc2cc(O[C@@H]3O[C@H](CO)[C@@H](O)[C@H](O)[C@H]3O)cc(O)c12 [Apigenin-7-glucoside]
Activity Ratio on Molar basis [2]: 0.32

C[C@@H]1O[C@@H](OC[C@H]2O[C@@H](Oc3c(-c4ccc(O)c(O)c4)oc4cc(O)cc(O)c4c3=O)[C@H](O)[C@@H](O)[C@@H]2O)[C@H](O)[C@H](O)[C@H]1O [Rutin]
Activity Ratio on Molar basis [2]: 0.28

COc1ccc2c(c1)c(CC(=O)O)c(C)n2C(=O)c1ccc(Cl)cc1 [Indomethacin]
Oedema + SEM (%) ([3]; indomethacin 0.5 mg/Kg i.p., +30 min): 13.6 ± 4.0% | Oedema + SEM (%) ([3]; indomethacin 0.5 mg/Kg i.p., +60 min): 18.9 ± 4.0% | Oedema + SEM (%) ([3]; indomethacin 0.5 mg/Kg i.p., +120 min): 28.8 ± 4.2% | Oedema + SEM (%) ([3]; indomethacin 1.0 mg/Kg i.p., +30 min): 9.3 ± 2.3% | Oedema + SEM (%) ([3]; indomethacin 1.0 mg/Kg i.p., +60 min): 12.3 ± 2.2% | Oedema + SEM (%) ([3]; indomethacin 1.0 mg/Kg i.p., +120 min): 16.4 ± 1.6% | inhibition of oedema ([3]; indomethacin 1 mg/kg i.p.): 74% | Oedema + SEM (%) ([3]; indomethacin 2.0 mg/Kg i.p., +30 min): 8.2 ± 1.5% | Oedema + SEM (%) ([3]; indomethacin 2.0 mg/Kg i.p., +60 min): 12.8 ± 1.8% | Effect on Oedema Development ([2]; 6 hours after treatment): 0.0 ± 0.1 mg | duration of antiinflammatory activity ([2]; 18 hours after treatment): lose their antiinflammatory activity 18 hours after treatment | Effect on Oedema Development ([2]; 18 hours after treatment): 3.1 ± 0.4 mg | Effect on Oedema Development ([2]; 30 hours after treatment): 0.5 ± 0.1 mg | inhibition of carrageenan-induced paw oedema ([4]; Indomethacin line printed at dose 1.00, +60 m, N=6): 30.3% | inhibition of carrageenan-induced paw oedema ([4]; Indomethacin line printed at dose 1.00, +120 m, N=6): 28.0% | inhibition of carrageenan-induced paw oedema ([4]; Indomethacin line printed at dose 1.00, +180 m, N=6): 46.8% | inhibition of carrageenan-induced paw oedema ([4]; Indomethacin line printed at dose 1.00, +240 m, N=6): 21.2% | inhibition of carrageenan-induced paw oedema ([4]; Indomethacin line printed at dose 1.00, +360 m, N=6): 11.5% | inhibition of carrageenan-induced paw oedema ([4]; Indomethacin line printed at dose 1.00, +480 m, N=6): 13.9% | inhibition of carrageenan-induced paw oedema ([4]; Indomethacin line printed at dose 2.00, +60 m, N=6): 18.2% | inhibition of carrageenan-induced paw oedema ([4]; Indomethacin line printed at dose 2.00, +120 m, N=6): 24.0% | inhibition of carrageenan-induced paw oedema ([4]; Indomethacin line printed at dose 2.00, +180 m, N=6): 29.0% | inhibition of carrageenan-induced paw oedema ([4]; Indomethacin line printed at dose 2.00, +240 m, N=6): 21.2% | inhibition of carrageenan-induced paw oedema ([4]; Indomethacin line printed at dose 2.00, +360 m, N=6): 9.6% | inhibition of carrageenan-induced paw oedema ([4]; Indomethacin line printed at dose 2.00, +480 m, N=6): 4.6% | inhibition ([4]; indomethacin 2 percent concentration): 41.9% | inhibition of carrageenan-induced paw oedema ([4]; last line, no dose given, +60 m): 24.2% | inhibition of carrageenan-induced paw oedema ([4]; last line, no dose given, +120 m): 26.0% | inhibition of carrageenan-induced paw oedema ([4]; last line, no dose given, +180 m): 41.9% | inhibition of carrageenan-induced paw oedema ([4]; last line, no dose given, +240 m): 36.4% | inhibition of carrageenan-induced paw oedema ([4]; last line, no dose given, +360 m): 11.5% | inhibition of carrageenan-induced paw oedema ([4]; last line, no dose given, +480 m): 10.6% | Effect on granulocyte infiltration (MPO activity) ([5]; 6 hours after treatment): 0.0 ± 0.1 unit | Effect on granulocyte infiltration (MPO activity) ([5]; 18 hours after treatment): 10.0 ± 1.6 unit | Effect on granulocyte infiltration (MPO activity) ([5]; 30 hours after treatment): 6.8 ± 3.4 unit

C[C@]12CCC(=O)C=C1CC[C@@H]1[C@@H]2[C@@H](O)C[C@@]2(C)[C@H]1CC[C@]2(O)C(=O)CO [Hydrocortisone]
Effect on Oedema Development ([2]; 6 hours after treatment): 0.5 ± 0.2 mg | duration of antiinflammatory activity ([2]; 18 hours after treatment): maintain their effect to a certain extent | Effect on Oedema Development ([2]; 18 hours after treatment): 0.7 ± 0.1 mg | Effect on Oedema Development ([2]; 30 hours after treatment): 0.7 ± 0.1 mg | Activity Ratio on Molar basis [2]: 14.00 | Effect on granulocyte infiltration (MPO activity) ([5]; 6 hours after treatment): 0.0 ± 0.2 unit | Effect on granulocyte infiltration (MPO activity) ([5]; 18 hours after treatment): 6.9 ± 2.1 unit | Effect on granulocyte infiltration (MPO activity) ([5]; 30 hours after treatment): 8.2 ± 2.4 unit

O=c1cc(-c2ccc(O)c(O)c2)oc2cc(O)cc(O)c12 [luteolin]
leukocyte infiltration [5]: decrease leukocyte infiltration and luteolin maintained its effect even after 18 hours of treatment

O=c1cc(-c2ccc(O)cc2)oc2cc(O)cc(O)c12 [Apigenin, apigenin]
leukocyte infiltration [5]: decrease leukocyte infiltration
